Experiments:
Format in all cases: cell-based
human TLR7 = target: T1, human TLR7 (Homo sapiens, UniProt Q9NYK1); assay: TLR7 inhibition reporter assay (HEK-Blue SEAP reporter, gardiquimod stimulation); conditions: HEK-Blue cells overexpressing human TLR7, SEAP reporter, gardiquimod 7.5 μM, 22 hour incubation
T1 construct: host or cells: HEK-Blue cells
T1 sequence (Q9NYK1 27-1049): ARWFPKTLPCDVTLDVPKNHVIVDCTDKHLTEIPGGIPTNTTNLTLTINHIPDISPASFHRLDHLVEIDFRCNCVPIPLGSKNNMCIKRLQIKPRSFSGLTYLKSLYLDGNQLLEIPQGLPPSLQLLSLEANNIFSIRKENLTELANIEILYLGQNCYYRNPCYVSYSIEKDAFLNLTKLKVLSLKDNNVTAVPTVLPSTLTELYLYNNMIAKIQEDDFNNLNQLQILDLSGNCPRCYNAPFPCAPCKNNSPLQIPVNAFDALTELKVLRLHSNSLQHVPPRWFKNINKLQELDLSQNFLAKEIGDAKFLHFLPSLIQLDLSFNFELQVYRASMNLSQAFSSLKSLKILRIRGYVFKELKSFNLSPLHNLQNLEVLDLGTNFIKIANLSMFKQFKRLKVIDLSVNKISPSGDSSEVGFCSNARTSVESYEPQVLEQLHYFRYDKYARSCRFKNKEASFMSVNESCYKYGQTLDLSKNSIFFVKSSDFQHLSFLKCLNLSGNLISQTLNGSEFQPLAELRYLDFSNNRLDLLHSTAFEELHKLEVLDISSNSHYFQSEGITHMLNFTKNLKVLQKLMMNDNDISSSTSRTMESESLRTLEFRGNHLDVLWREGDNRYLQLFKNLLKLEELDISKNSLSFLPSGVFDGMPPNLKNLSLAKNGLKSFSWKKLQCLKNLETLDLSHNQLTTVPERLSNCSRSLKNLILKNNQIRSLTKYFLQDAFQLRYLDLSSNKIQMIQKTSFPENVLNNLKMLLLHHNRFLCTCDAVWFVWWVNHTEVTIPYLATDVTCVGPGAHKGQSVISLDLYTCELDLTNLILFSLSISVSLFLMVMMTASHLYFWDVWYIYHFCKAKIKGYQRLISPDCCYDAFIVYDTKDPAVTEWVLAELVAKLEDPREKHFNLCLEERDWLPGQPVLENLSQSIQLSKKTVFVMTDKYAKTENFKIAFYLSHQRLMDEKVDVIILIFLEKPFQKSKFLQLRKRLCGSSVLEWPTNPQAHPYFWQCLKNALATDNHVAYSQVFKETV
Summary of the method: (§1)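 Screening used HEK-Blue cells overexpressing one human TLR (7, 8 or 9) and an IFN-β minimal promoter–NF-κB/AP-1 SEAP construct. Stimulation lasted 22 h at 37 °C with receptor-specific agonist: gardiquimod, R848 or ODN2006 at 7.5 μM, 15.9 μM and 5 nM.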

human TLR8 = target: T2, human TLR8 (Homo sapiens, UniProt Q9NR97); assay: TLR8 inhibition reporter assay (HEK-Blue SEAP reporter, R848 stimulation); conditions: HEK-Blue cells overexpressing human TLR8, SEAP reporter, R848 15.9 μM, 22 hour incubation
T2 construct: host or cells: HEK-Blue cells
T2 sequence (Q9NR97 27-1041): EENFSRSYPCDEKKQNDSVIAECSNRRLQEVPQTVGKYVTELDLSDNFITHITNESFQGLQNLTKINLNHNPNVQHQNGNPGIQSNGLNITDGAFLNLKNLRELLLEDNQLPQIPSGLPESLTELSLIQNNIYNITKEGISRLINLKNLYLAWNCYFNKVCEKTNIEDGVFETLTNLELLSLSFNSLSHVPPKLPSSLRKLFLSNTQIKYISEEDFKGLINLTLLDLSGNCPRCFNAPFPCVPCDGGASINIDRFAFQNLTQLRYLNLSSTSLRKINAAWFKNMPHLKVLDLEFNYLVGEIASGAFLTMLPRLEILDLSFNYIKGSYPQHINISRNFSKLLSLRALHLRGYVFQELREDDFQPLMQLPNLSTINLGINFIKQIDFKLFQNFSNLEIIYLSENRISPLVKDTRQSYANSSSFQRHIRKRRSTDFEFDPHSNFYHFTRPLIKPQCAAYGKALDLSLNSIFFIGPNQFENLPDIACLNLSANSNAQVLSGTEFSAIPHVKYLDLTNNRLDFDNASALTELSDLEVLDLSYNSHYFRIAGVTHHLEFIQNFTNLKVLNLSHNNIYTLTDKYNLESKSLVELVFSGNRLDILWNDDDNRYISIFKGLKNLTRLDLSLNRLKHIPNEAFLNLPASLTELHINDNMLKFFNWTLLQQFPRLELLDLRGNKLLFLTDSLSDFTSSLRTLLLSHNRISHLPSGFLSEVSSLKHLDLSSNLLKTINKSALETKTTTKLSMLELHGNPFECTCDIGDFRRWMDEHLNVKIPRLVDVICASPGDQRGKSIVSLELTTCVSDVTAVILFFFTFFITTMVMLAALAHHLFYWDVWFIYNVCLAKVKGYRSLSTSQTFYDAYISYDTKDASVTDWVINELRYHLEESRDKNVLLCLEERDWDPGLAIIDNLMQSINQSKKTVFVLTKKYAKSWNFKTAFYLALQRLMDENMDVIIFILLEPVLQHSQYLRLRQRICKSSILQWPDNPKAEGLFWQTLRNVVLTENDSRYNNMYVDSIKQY
Summary of the method: as §1

human TLR9 = target: T3, human TLR9 (Homo sapiens, UniProt Q9NR96); assay: TLR9 inhibition reporter assay (HEK-Blue SEAP reporter, ODN2006 stimulation); conditions: HEK-Blue cells overexpressing human TLR9, SEAP reporter, ODN2006 5 nM, 22 hour incubation
T3 construct: host or cells: HEK-Blue cells
T3 sequence (Q9NR96 26-1032): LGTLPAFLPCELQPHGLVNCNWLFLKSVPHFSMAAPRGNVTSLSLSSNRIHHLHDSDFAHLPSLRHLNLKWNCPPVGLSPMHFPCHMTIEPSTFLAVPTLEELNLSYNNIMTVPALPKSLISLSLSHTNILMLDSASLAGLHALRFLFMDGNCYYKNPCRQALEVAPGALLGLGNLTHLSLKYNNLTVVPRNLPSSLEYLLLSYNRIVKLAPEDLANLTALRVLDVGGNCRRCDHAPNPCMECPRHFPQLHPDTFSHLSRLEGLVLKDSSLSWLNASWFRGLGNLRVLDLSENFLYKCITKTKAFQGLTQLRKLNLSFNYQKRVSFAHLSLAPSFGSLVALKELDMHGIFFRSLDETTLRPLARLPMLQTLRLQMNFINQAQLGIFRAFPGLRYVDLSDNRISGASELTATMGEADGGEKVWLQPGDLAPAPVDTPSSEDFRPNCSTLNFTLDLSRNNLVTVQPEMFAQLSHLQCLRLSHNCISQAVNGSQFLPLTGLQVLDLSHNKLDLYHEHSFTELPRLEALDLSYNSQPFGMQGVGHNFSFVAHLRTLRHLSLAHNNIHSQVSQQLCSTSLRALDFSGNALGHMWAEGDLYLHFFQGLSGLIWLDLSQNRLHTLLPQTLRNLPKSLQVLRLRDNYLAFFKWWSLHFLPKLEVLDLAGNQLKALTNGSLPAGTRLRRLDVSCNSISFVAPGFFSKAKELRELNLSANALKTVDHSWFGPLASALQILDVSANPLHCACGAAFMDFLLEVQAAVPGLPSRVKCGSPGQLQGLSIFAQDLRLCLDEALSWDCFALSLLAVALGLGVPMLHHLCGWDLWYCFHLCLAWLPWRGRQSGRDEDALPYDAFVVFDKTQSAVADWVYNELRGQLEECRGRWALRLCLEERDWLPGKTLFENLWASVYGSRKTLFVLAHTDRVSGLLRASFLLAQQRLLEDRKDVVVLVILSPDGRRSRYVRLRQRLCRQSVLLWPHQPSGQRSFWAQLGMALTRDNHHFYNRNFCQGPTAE
Summary of the method: as §1

Row | Structure (SMILES) | IC50 (human TLR7) [nM] | IC50 (human TLR8) [nM] | IC50 (human TLR9) [nM]
1 | Cc1cc(-c2[nH]c3ccc(C4CCN(CC(C)C)CC4)cc3c2C(C)C)cn(CC(C)C)c1=O [Example 112, 1-isobutyl-5-(5-(1-isobutylpiperidin-4-yl)-3-isopropyl-1H-indol-2-yl)-3-methylpyridin-2(1H)-one] | 38.9 | 70.5 | 2360
2 | CNC(=O)CN1CCC(c2ccc3[nH]c(-c4cc(C)c(=O)n(Cc5ccccc5)c4)c(C(C)C)c3c2)CC1 [Example 162, 2-(4-(2-(1-benzyl-5-methyl-6-oxo-1,6-dihydropyridin-3-yl)-3-isopropyl-1H-indol-5-yl)piperidin-1-yl)-N-methylacetamide] | 8.4 | 99.4 | 4120
3 | Cc1cc(-c2[nH]c3ccc(C4CCN(C5COC5)CC4)cc3c2C(C)C)cn(C)c1=O [Example 171, 5-(3-isopropyl-5-(1-(oxetan-3-yl)piperidin-4-yl)-1H-indol-2-yl)-1,3-dimethylpyridin-2(1H)-one] | 5.1 | 10.4 | 25200
4 | Cc1nc(-c2[nH]c3ccc(C4CCN(CC(=O)N(C)C)CC4)cc3c2C(C)C)cn(C)c1=O [Example 115, 2-(4-(2-(4,6-dimethyl-5-oxo-4,5-dihydropyrazin-2-yl)-3-isopropyl-1H-indol-5-yl)piperidin-1-yl)-N,N-dimethylacetamide] | 48 | 42.1 | 6590
5 | Cc1c(-c2[nH]c3ccc(C4CCN(CC(=O)N(C)C)CC4)cc3c2C(C)C)cn(C)c(=O)c1Cl [Example 152, 2-(4-(2-(5-chloro-1,4-dimethyl-6-oxo-1,6-dihydropyridin-3-yl)-3-isopropyl-1H-indol-5-yl)piperidin-1-yl)-N,N-dimethylacetamide] | 1.4 | 4.6 | 16600
6 | Cc1c(-c2[nH]c3ccc(C4CCN(CC#N)CC4)cc3c2C(C)C)cn(C)c(=O)c1Cl [Example 96, 2-(4-(2-(5-chloro-1,4-dimethyl-6-oxo-1,6-dihydropyridin-3-yl)-3-isopropyl-1H-indol-5-yl)piperidin-1-yl)acetonitrile] | 2 | 14.3 | 2860
7 | COCCn1cc(-c2[nH]c3ccc(C4CCN(C(=O)CN(C)C)CC4)cc3c2C(C)C)cc(C)c1=O [Example 287, 5-(5-(1-(dimethylglycyl)piperidin-4-yl)-3-isopropyl-1H-indol-2-yl)-1-(2-methoxyethyl)-3-methylpyridin-2(1H)-one] | 7.8 | 8.6 | 18200
8 | CCn1cc(-c2[nH]c3ccc(C4CCN(C5COC5)CC4)cc3c2C(C)C)cc(C)c1=O [Example 204, 1-ethyl-5-(3-isopropyl-5-(1-(oxetan-3-yl)piperidin-4-yl)-1H-indol-2-yl)-3-methylpyridin-2(1H)-one] | 14.6 | 18 | ≥ 50000
9 | CCCN1CCC(c2ccc3[nH]c(-c4cc(-c5ccc(F)nc5)c(=O)n(C)c4)c(C(C)C)c3c2)CC1 [Example 341, 6′-fluoro-5-(3-isopropyl-5-(1-propylpiperidin-4-yl)-1H-indol-2-yl)-1-methyl-[3,3′-bipyridin]-2(1H)-one] | 16.2 | 4.3 | 714
10 | CC(C)c1c(-c2ccc(=O)n(C)c2)[nH]c2ccc(C3CCN(C4CCOC4)CC3)cc12 (stereo not drawn) [Example 177, 5-(3-isopropyl-5-(1-(tetrahydrofuran-3-yl)piperidin-4-yl)-1H-indol-2-yl)-1-methylpyridin-2(1H)-one] | 154 | 51.9 | 9210
11 | CCn1cc(-c2[nH]c3ccc(C4CCNCC4)cc3c2C(C)C)c(C)c(C)c1=O [Example 26, 1-ethyl-5-(3-isopropyl-5-(piperidin-4-yl)-1H-indol-2-yl)-3,4-dimethylpyridin-2(1H)-one] | 12 | 8.9 | 1860
12 | Cc1cc(-c2[nH]c3ccc(C4CCN(CCC(C)C)CC4)cc3c2C(C)C)cn(C)c1=O [Example 86, 5-(5-(1-isopentylpiperidin-4-yl)-3-isopropyl-1H-indol-2-yl)-1,3-dimethylpyridin-2(1H)-one] | 2.1 | 4.6 | 2540
13 | Cc1cc(-c2[nH]c3ccc(C4CCN(CC5CC5)CC4)cc3c2C(C)C)cn(C)c1=O [Example 223, 5-(5-(1-(cyclopropylmethyl)piperidin-4-yl)-3-isopropyl-1H-indol-2-yl)-1,3-dimethylpyridin-2(1H)-one] | 10 | 13.6 | 5910
14 | CC(C)c1c(-c2cc(-c3cccnc3)c(=O)n(C)c2)[nH]c2ccc(C3CCN(C)CC3)cc12 [Example 247, 5-(3-isopropyl-5-(1-methylpiperidin-4-yl)-1H-indol-2-yl)-1-methyl-[3,3′-bipyridin]-2(1H)-one] | 3 | 4.1 | 864

From US11447466B2, “Substituted indole compounds useful as inhibitors of TLR7/8/9” (BRISTOL-MYERS SQUIBB COMPANY, priority 2017, dated 2022)
